According to ChEMBL document CHEMBL1201862, “PubChem BioAssay data set” (2004):
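Method: 48-hour compound exposure of cells in 96-well plates, five concentrations, linear interpolation of endpoints. The concentration for 50% growth inhibition is given as GI50.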 Calls of active or inactive are those of the source. Rule as the data show it: active = GI50 up to about 1.1 µM and inactive = higher.

What was measured:
Assay in all cases: NCI tumour cell line growth inhibition, 48 h
[1] = tested on: NCI-H460
[2] = tested on: KM12
[3] = tested on: UO-31
[4] = tested on: HCT-15
[5] = tested on: MDA-MB-435
[6] = tested on: IGROV-1
[7] = tested on: SK-OV-3
[8] = tested on: HOP-62
[9] = tested on: HCC 2998
[10] = tested on: MDA-N
[11] = tested on: OVCAR-3
[12] = tested on: NCI-H226
[13] = tested on: SK-MEL-2
[14] = tested on: ACHN
[15] = tested on: HOP-92
[16] = tested on: EKVX
[17] = tested on: MCF7
[18] = tested on: MOLT-4
[19] = tested on: SF-539
[20] = tested on: A549
[21] = tested on: MDA-MB-231
[22] = tested on: PC-3
[23] = tested on: SW-620
[24] = tested on: COLO 205
[25] = tested on: U-251
[26] = tested on: UACC-257
[27] = tested on: SR
[28] = tested on: SF-295
[29] = tested on: RXF 393
[30] = tested on: CCRF-CEM
[31] = tested on: SK-MEL-5
[32] = tested on: T47D
[33] = tested on: HT-29
[34] = tested on: OVCAR-4
[35] = tested on: DU-145
[36] = tested on: OVCAR-5
[37] = tested on: CAKI-1
[38] = tested on: K562
[39] = tested on: NCI/ADR-RES
[40] = tested on: UACC-62
[41] = tested on: SK-MEL-28
[42] = tested on: RPMI-8226
[43] = tested on: OVCAR-8
[44] = tested on: M14
[45] = tested on: TK-10
[46] = tested on: SNB-75
[47] = tested on: LOX IMVI
[48] = tested on: SNB-19
[49] = tested on: HL-60
[50] = tested on: NCI-H23

Measured: GI50

CCOC(=O)c1csc(NC(=O)CCN2CCCC2)n1
> 100 µM: [4]
inactive: [1] > 100 µM | [2] > 100 µM | [3] > 100 µM | [5] > 100 µM | [6] > 100 µM | [7] > 100 µM | [8] > 100 µM | [9] > 100 µM | [10] > 100 µM | [11] > 100 µM | [12] > 100 µM | [13] > 100 µM | [14] > 100 µM | [15] > 100 µM | [16] > 100 µM | [17] > 100 µM | [18] > 100 µM | [19] > 100 µM | [20] > 100 µM | [21] > 100 µM | [22] > 100 µM | [23] > 100 µM | [24] > 100 µM | [25] > 100 µM | [26] > 100 µM | [27] 78.5 µM | [28] > 100 µM | [29] > 100 µM | [30] > 100 µM | [31] > 100 µM | [32] > 100 µM | [33] > 100 µM | [34] > 100 µM | [35] > 100 µM | [36] > 100 µM | [37] > 100 µM | [38] > 100 µM | [39] > 100 µM | [40] > 100 µM | [41] > 100 µM | [42] 86.7 µM | [43] > 100 µM | [44] > 100 µM | [45] > 100 µM | [46] > 100 µM | [47] > 100 µM | [48] > 100 µM | [49] > 100 µM | [50] > 100 µM
